Assay [1] deals with Tyrosine-protein kinase BTK (Homo sapiens) (UniProt Q06187). The assay can be described thus: Inhibition of human full length recombinant BTK at 5 nM by radiometric scintillation counting analysis relative to control.
Assay [2] has as its target T1, Tyrosine-protein kinase CSK (Homo sapiens, UniProt P41240). The assay can be described thus: Inhibition of human full length recombinant CSK at 5 nM by radiometric scintillation counting analysis relative to control.
Assay [3] deals with T2, Tyrosine-protein kinase ITK/TSK (Homo sapiens) (UniProt Q08881).
T2 sequence (whole entry): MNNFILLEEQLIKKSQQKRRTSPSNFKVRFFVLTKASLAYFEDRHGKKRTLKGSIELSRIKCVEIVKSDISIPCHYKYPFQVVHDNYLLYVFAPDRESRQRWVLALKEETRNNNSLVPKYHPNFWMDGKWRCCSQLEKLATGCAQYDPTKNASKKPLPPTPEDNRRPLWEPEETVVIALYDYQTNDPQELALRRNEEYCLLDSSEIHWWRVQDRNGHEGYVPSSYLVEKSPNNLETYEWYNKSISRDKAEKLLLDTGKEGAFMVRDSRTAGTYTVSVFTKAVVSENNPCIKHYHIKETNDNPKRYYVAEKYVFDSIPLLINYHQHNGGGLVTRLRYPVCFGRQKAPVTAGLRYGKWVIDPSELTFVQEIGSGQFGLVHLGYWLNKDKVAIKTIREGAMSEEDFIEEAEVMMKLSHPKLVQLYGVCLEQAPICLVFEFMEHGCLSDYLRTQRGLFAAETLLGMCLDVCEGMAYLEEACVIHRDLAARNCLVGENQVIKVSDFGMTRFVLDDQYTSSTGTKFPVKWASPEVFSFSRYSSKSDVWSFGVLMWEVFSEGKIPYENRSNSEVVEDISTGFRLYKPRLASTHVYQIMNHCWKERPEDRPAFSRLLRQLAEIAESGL
The assay can be described thus: Inhibition of human recombinant ITK (352 to 617) at 5 nM by radiometric scintillation counting analysis relative to control.

In assay [4] the target is Tyrosine-protein kinase Lck (Homo sapiens, UniProt P06239). The assay is described as follows: Inhibition of human full length recombinant LCK at 5 nM by radiometric scintillation counting analysis relative to control.
For assay [5], the target named is Platelet-derived growth factor receptor beta (Homo sapiens) (UniProt P09619). The assay is described as follows: Inhibition of human recombinant PDGFRbeta (557 to end) at 5 nM by radiometric scintillation counting analysis relative to control.
Assay [6] deals with T3, Proto-oncogene tyrosine-protein kinase Src (Homo sapiens, UniProt P12931). The assay can be described thus: Inhibition of human recombinant Src (1-530) at 5 nM by radiometric scintillation counting analysis relative to control.
Assay [7] deals with T4, Tyrosine-protein kinase ZAP-70 (Homo sapiens) (UniProt P43403).
T4 sequence (whole entry): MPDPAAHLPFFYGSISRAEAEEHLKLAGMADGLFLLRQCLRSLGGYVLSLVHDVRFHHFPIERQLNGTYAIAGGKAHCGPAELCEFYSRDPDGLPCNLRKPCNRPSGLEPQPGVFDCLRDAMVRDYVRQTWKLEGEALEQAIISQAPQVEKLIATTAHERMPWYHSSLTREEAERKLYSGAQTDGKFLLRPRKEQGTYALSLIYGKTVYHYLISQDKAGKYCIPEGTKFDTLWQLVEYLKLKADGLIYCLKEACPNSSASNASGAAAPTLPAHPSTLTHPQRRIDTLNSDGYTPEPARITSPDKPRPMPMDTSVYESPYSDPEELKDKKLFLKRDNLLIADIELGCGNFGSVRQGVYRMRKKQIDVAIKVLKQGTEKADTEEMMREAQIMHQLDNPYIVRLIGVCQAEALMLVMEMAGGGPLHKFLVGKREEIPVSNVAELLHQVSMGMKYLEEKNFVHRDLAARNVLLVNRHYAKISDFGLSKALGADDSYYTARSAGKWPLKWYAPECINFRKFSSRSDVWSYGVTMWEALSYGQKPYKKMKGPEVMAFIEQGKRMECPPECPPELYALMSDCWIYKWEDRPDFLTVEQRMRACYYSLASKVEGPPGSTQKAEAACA
The assay can be described thus: Inhibition of human full length recombinant ZAP70 at 5 nM by radiometric scintillation counting analysis relative to control.

In assay [8] the target is T5, Tyrosine-protein kinase ABL1 (Homo sapiens, UniProt P00519). The assay can be described thus: Inhibition of human recombinant ABL1 using ATP/Ulight-TK peptide at 50 nM incubated for 15 mins relative to control.
Assay [9] has as its target T1, Tyrosine-protein kinase CSK. The assay is described as follows: Inhibition of human full length recombinant CSK at 50 nM by radiometric scintillation counting analysis relative to control.
In assay [10] the target is Tyrosine-protein kinase Fgr (Homo sapiens, UniProt P09769). The assay can be described thus: Inhibition of human recombinant FGR (456 to 770) at 50 nM by radiometric scintillation counting analysis relative to control.
The target in assay [11] is T5, Tyrosine-protein kinase ABL1. The assay is described as follows: Inhibition of human recombinant ABL1 using ATP/Ulight-TK peptide at 500 nM incubated for 15 mins relative to control.
Assay [12] concerns the target Mast/stem cell growth factor receptor Kit (Homo sapiens) (UniProt P10721). The assay can be described thus: Inhibition of human recombinant c-Kit at 500 nM by radiometric scintillation counting analysis relative to control.
Assay [13] has as its target Macrophage colony-stimulating factor 1 receptor (Homo sapiens, UniProt P07333). The assay can be described thus: Inhibition of human recombinant CSF1R using ATP/Ulight-TK peptide at 500 nM incubated for 15 mins relative to control.
The target of assay [14] is Tyrosine-protein kinase Fyn (Homo sapiens, UniProt P06241). The assay can be described thus: Inhibition of human recombinant Fyn (218 to end) at 500 nM incubated for 15 mins relative to control.
Assay [15] addresses Tyrosine-protein kinase HCK (Homo sapiens, UniProt P08631). The assay is described as follows: Inhibition of human recombinant HCK (230 to 497) at 500 nM by radiometric scintillation counting analysis relative to control.
Assay [16] addresses Platelet-derived growth factor receptor alpha (Homo sapiens) (UniProt P16234). The assay is described as follows: Inhibition of human recombinant PDGFRalpha (550 to end) at 500 nM by radiometric scintillation counting analysis relative to control.
The target in assay [17] is T3, Proto-oncogene tyrosine-protein kinase Src. The assay can be described thus: Inhibition of human recombinant Src (1-530) at 500 nM by radiometric scintillation counting analysis relative to control.
Assay [18] deals with Tyrosine-protein kinase Srms (Homo sapiens, UniProt Q9H3Y6). The assay is described as follows: Inhibition of human SRMS at 500 nM by radiometric scintillation counting analysis relative to control.
Assay [19] has as its target Tyrosine-protein kinase SYK (Homo sapiens) (UniProt P43405). The assay can be described thus: Inhibition of human full length recombinant Syk at 500 nM by radiometric scintillation counting analysis relative to control.
Assay [20] addresses RAC-alpha serine/threonine-protein kinase (Homo sapiens) (UniProt P31749). The assay can be described thus: Inhibition of human recombinant PKBalpha at 50 nM radiometric scintillation counting analysis relative to control.

Tyrosine-protein kinase BTK (Homo sapiens), sequence (Q06187 whole entry): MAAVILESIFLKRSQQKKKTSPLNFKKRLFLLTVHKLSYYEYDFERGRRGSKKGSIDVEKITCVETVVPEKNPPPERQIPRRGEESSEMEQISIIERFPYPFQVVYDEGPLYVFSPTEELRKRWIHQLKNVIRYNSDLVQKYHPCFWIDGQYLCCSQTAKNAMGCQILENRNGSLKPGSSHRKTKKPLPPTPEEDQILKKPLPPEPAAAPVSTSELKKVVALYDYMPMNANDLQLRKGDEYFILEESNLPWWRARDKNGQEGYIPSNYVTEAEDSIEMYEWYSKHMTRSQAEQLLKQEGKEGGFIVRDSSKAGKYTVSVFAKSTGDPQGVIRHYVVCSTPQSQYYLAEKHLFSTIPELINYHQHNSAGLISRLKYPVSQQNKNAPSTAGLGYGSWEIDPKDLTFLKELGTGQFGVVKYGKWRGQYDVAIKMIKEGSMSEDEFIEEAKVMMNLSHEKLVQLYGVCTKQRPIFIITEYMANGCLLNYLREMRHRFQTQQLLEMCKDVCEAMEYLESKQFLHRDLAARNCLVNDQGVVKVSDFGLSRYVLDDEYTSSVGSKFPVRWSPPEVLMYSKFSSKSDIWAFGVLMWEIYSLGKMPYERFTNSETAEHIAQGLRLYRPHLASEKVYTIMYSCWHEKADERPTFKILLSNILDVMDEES
T1 sequence (P41240 2-450 limits assumed): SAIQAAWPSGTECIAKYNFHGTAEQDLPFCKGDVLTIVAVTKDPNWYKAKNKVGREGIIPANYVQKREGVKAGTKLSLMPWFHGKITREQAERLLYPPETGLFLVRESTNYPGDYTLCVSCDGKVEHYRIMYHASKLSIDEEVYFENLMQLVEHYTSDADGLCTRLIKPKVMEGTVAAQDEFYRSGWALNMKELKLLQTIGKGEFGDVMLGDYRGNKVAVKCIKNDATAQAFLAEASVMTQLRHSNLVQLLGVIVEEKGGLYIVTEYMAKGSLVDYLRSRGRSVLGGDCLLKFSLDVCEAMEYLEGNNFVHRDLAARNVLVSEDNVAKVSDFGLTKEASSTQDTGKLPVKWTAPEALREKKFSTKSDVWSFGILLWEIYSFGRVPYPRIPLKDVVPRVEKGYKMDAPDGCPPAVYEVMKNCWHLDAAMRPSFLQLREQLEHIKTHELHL
T5 sequence (P00519 whole entry): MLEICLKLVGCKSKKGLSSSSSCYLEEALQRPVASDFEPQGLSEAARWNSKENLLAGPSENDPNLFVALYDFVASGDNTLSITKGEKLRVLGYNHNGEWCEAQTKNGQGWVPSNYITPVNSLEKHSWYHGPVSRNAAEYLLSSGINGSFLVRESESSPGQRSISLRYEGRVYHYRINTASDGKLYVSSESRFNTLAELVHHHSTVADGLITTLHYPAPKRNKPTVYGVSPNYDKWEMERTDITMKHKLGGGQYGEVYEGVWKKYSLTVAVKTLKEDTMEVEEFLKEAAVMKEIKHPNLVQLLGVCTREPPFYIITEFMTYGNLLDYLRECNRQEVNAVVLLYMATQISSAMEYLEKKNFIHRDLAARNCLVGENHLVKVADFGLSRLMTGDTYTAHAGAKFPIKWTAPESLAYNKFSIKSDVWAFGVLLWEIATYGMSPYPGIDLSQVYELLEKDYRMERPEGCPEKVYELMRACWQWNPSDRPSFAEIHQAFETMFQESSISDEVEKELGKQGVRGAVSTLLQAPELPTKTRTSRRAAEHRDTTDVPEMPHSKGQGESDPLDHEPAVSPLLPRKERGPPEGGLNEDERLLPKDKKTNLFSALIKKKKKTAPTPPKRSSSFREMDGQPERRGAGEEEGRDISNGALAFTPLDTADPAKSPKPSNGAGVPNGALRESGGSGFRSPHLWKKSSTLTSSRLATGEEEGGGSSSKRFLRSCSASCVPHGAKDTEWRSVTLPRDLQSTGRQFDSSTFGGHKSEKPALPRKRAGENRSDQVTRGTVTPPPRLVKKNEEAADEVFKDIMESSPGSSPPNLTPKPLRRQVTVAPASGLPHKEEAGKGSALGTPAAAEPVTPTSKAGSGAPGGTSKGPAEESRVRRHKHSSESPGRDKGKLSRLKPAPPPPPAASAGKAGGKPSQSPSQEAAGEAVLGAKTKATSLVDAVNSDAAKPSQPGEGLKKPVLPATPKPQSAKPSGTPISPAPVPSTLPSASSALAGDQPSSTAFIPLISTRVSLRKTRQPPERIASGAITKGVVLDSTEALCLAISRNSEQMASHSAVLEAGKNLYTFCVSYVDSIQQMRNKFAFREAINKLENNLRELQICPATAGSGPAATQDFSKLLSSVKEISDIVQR
Tyrosine-protein kinase Lck, sequence (P06239 2-509 limits assumed): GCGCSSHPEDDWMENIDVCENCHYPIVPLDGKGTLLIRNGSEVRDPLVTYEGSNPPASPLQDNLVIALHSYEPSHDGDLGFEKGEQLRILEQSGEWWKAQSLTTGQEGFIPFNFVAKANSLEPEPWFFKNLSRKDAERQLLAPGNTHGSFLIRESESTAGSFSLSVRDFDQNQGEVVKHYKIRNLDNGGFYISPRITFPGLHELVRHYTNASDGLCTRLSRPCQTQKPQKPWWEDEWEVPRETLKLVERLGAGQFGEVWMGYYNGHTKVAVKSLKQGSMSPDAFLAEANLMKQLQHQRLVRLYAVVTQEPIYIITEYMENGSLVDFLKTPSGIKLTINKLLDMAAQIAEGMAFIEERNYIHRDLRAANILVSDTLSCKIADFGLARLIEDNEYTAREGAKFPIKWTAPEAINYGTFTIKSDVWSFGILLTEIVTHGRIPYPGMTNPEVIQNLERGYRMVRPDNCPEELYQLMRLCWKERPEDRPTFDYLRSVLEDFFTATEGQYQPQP
T3 sequence (P12931 2-536 limits assumed): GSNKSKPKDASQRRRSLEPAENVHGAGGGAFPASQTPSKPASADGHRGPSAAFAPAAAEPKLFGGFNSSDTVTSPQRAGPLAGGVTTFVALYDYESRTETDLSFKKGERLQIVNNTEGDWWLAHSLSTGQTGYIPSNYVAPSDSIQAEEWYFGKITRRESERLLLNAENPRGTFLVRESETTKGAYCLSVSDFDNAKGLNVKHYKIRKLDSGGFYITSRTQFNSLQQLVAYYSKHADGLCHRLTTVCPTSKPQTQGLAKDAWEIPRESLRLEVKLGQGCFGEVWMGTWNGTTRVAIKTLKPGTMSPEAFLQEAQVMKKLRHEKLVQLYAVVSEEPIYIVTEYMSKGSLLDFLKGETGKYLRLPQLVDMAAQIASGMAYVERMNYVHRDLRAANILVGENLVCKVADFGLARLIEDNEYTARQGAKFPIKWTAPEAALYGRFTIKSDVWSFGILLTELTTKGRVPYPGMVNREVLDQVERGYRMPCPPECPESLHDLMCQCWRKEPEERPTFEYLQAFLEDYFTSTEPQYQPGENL
Tyrosine-protein kinase Fgr, sequence (P09769 2-529 limits assumed): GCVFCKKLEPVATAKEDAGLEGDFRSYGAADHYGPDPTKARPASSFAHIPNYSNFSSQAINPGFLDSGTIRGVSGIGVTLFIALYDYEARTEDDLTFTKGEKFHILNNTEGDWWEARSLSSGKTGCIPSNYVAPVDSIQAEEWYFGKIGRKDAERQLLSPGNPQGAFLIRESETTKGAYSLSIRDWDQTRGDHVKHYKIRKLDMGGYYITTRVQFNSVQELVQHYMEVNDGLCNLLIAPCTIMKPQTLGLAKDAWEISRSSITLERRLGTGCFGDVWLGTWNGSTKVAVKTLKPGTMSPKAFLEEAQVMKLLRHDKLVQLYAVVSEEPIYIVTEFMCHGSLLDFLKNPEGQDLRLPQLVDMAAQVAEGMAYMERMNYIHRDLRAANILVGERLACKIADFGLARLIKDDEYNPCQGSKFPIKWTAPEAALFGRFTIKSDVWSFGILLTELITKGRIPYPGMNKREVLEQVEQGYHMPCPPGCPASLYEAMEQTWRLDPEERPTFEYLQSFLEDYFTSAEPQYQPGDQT
Mast/stem cell growth factor receptor Kit (Homo sapiens), sequence (P10721 whole entry): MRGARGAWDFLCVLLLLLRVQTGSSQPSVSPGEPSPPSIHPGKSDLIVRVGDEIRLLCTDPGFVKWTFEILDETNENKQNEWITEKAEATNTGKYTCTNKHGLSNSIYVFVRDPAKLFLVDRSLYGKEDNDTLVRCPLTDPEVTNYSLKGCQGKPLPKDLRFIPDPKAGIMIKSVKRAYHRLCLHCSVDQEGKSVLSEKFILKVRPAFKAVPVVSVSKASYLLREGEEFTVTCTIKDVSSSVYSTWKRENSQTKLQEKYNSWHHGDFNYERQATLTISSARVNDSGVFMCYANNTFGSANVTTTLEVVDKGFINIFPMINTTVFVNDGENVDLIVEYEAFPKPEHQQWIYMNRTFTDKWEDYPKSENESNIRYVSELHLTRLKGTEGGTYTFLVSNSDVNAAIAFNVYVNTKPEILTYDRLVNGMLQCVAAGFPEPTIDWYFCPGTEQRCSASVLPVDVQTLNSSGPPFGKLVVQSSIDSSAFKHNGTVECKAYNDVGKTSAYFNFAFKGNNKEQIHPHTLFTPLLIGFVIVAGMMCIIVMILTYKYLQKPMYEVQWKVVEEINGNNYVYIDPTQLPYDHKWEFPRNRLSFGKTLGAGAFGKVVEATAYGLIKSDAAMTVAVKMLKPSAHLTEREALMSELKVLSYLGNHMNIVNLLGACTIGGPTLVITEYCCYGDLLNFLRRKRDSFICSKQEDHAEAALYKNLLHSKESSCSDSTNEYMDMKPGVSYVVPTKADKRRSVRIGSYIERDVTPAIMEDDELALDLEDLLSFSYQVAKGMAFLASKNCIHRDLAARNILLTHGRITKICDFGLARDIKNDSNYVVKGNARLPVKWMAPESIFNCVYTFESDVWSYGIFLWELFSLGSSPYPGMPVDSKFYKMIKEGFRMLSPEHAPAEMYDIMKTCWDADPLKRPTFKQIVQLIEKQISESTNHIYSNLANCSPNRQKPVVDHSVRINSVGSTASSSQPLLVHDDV

In general, inhibition refers to the drop in the measured response relative to a control, in per cent. As to `Cc1ccc(C(=O)Nc2cc(C(F)(F)F)cc(C(F)(F)F)c2)cc1C#Cc1cc(-c2cnn(C)c2)cnc1N`, the inhibition is 16% in assay [1]; 22% in [2]; -8% in assay [3]; 26% in assay [4]; 18% in [5]; -10% in [6]. Besides, the inhibition in [7] amounted to 9%; in assay [8], 88%; in [9] it was 34%; in [10] it was 71%; in assay [11], 104%; in [12] it was 17%. For the same molecule, the inhibition in assay [13] stood at 96%; in assay [14], 97%; in assay [15], 97%; in [16], 18%; in assay [17] it was 92%; in assay [18], 86%. The inhibition in assay [19] and in assay [20] was 2% throughout.

Consider `Cc1ccc(C(=O)Nc2ccc(Cl)cc2Cl)cc1C#Cc1cc(-c2cnn(C)c2)cnc1N`, for which the inhibition was 8% in assay [1]; 22% in [2]; -5% in assay [3]; 27% in assay [4]; 12% in assay [5]; 4% in [6]. The inhibition is 20% in assay [7]; 64% in [8]; 28% in assay [9]; 20% in assay [10]; 89% in assay [11]; 56% in assay [12]. The inhibition in assay [13] came to 98%; in assay [14], 64%; in assay [15], 89%; in assay [16], 94%; in assay [17] it was 79%; in assay [18] it was 13%. In addition, the inhibition in assay [19] was 8%; in [20], 7%.

Take `Cc1ccc(C(=O)Nc2ccc(OC(F)(F)F)cc2)cc1C#Cc1cc(-c2cnn(C)c2)cnc1N`: the inhibition is -4% in [1]; 2% in assay [2]; 0% in assay [3]; 42% in assay [4]; 1% in assay [5]; 71% in assay [6]. In addition, the inhibition in assay [7] was -7%; in assay [8], 96%; in [9] it was 4%; in [10], 34%; in [11], 102%; in assay [12] it was 65%. The inhibition in assay [13] is 90%; in assay [14], 96%; in assay [15], 93%; in assay [16] it was 82%; in assay [17], 96%; in assay [18] it was 54%. In addition, the figures for the inhibition in assay [19] and in assay [20] were 9% and 2%, respectively.

The values are drawn from ChEMBL document CHEMBL4837249, “Discovery of Potent Antiallergic Agents Based on an o-Aminopyridinyl Alkynyl Scaffold” (J Med Chem, 2021).
